Columns and labels:
osteoclast (OC) = osteoclast (OC) inhibitory activity in vitro using mouse bone marrow cells (osteoclast culture); type: cell-based; conditions: for activity in osteoclast culture assay: in vitro, qualitative ranking; for OC numbers: mouse bone marrow cells, vehicle 239+/−17
Protocol: To determine if these AF-BP structural modifications improved the osteoclast (OC) inhibitory activity, these modifications were tested in vitro using mouse bone marrow cells.

bone slice resorption = bone slice resorption assay; type: cell-based; conditions: in vitro, qualitative ranking

| SMILES | activity in osteoclast culture assay (osteoclast (OC)) | activity in bone slice resorption assay (bone slice resorption) | OC numbers (osteoclast (OC); 0.1 uM) | OC numbers (osteoclast (OC); 1 uM) | OC numbers (osteoclast (OC); 10 uM) |
| --- | --- | --- | --- | --- | --- |
| O=C(CCNC(=O)c1ccc(-c2c3ccc(=O)cc-3oc3cc(O)ccc23)c(C(=O)O)c1)NCC(O)C[n+]1cccc(CC(O)(P(=O)(O)O)P(=O)(O)O)c1 (centres unmarked) [Compound 13, 1-(3-(3-(3-carboxy-4-(6-hydroxy-1-oxo-3H-xanthen-9-yl)benzamido)propanamido)-2-hydroxypropyl)-3-(2-hydroxy-2,2-diphosphonoethyl)pyridin-1-ium] | most active | most active |  |  |  |
| O=C(CCNC(=O)c1ccc(C(=O)O)c(-c2c3ccc(=O)cc-3oc3cc(O)ccc23)c1)NCC(O)C[n+]1cccc(CC(O)(P(=O)(O)O)P(=O)(O)O)c1 (centres unmarked) [Compound 14, 1-(3-(3-(4-carboxy-3-(6-hydroxy-3-oxo-3H-xanthen-9-yl)benzamido)propanamido)-2-hydroxypropyl)-3-(2-hydroxy-2,2-diphosphonoethyl)pyridin-1-ium] | most active | most active |  |  |  |
| O=C(CCOCCOCCOCCOCCNC(=O)c1ccc(-c2c3ccc(=O)cc-3oc3cc(O)ccc23)c(C(=O)O)c1)NCC(O)C[n+]1cccc(CC(O)(P(=O)(O)O)P(=O)(O)O)c1 (centres unmarked) [Compound 21, 1-(1-(3-carboxy-4-(6-hydroxy-3-oxo-3H-xanthen-9-yl)phenyl)-20-hydroxy-1,17-dioxo-5,8,11,14-tetraoxa-2,18-diazahenicosan-21-yl)-3-(2-hydroxy-2,2-diphosphonoethyl)pyridin-1-ium] | most active | most active |  |  |  |
| O=C(CCOCCOCCOCCOCCNC(=O)c1ccc(C(=O)O)c(-c2c3ccc(=O)cc-3oc3cc(O)ccc23)c1)NCC(O)C[n+]1cccc(CC(O)(P(=O)(O)O)P(=O)(O)O)c1 (centres unmarked) [Compound 22] | most active | most active |  |  |  |
| O=P(O)(O)C(O)(Cc1cccnc1)P(=O)(O)O [RIS, (1-hydroxy-2-pyridin-3-ylethane-1,1-diyl)bis(phosphonic acid), reference compound] |  |  | 214+/−37 | 220+/−28 | 143+/−21 |

Source: patent US20180362559A1, “BONE ACTIVE NITROGEN-CONTAINING BISPHOSPHONATES WITH A NEAR INFRARED FLUORESCENT LABEL” (University of Southern California, priority 2015, published 2018)
